In the supplement of paper PMC5908809:

Legend:
[1] = test system: normal NK cells expanded with K562-aAPC; experiment: drug sensitivity score (DSS) (DSS units); higher = more sensitive; extreme values may be limits of the assay; conditions: 72 h; IL-2 2.5 ng/mL
Description: (§1)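 Drug sensitivity and resistance testing on K562-aAPC-expanded normal NK cells: 5 concentrations (10-fold steps over a 10,000-fold range), 72 h at 37 °C, viability by CellTiter-Glo normalised to DMSO and benzethonium chloride controls; DSS from the fitted curve.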

KHYG-1 (IL-2 2.5 ng/mL) [2] = experiment: as above; conditions: 72 h
NKL (IL-2 2.5 ng/mL) [3] = experiment: as above; conditions: 72 h
KAI3 (IL-2 2.5 ng/mL) [4] = experiment: as above; conditions: 72 h
[5] = test system: normal primary NK cells, pool 1 (3 donors) (IL-2 2.5 ng/mL); experiment: as above; conditions: 72 h
NK-YS (IL-2 2.5 ng/mL) [6] = experiment: as above; conditions: 72 h
DERL-7 (IL-2 2.5 ng/mL) [7] = experiment: as above; conditions: 72 h
[8] = test system: normal primary NK cells, pool 2 (3 donors) (IL-2 2.5 ng/mL); experiment: as above; conditions: 72 h
[9] = test system: normal primary NK cells, pool 1 (3 donors), resting (IL-2 0 ng/mL); experiment: as above; conditions: 72 h
YT (IL-2 2.5 ng/mL) [10] = experiment: as above; conditions: 72 h
IMC-1 (IL-2 20 ng/mL) [11] = experiment: as above; conditions: 72 h
NK-92 (IL-2 2.5 ng/mL) [12] = experiment: as above; conditions: 72 h
SNK-6 (IL-2 2.5 ng/mL) [13] = experiment: as above; conditions: 72 h
[14] = test system: normal primary NK cells, pool 3 (3 donors) (IL-2 2.5 ng/mL); experiment: as above; conditions: 72 h
KHYG-1 (IL-2 2.5 ng/mL) [15] = experiment: percent inhibition of viability; higher = more inhibition; conditions: 72 h
NKL (IL-2 2.5 ng/mL) [16] = experiment: as above; conditions: 72 h
KAI3 (IL-2 2.5 ng/mL) [17] = experiment: as above; conditions: 72 h
[18] = test system: normal primary NK cells, pool 1 (3 donors) (IL-2 2.5 ng/mL); experiment: as above; conditions: 72 h
NK-YS (IL-2 2.5 ng/mL) [19] = experiment: as above; conditions: 72 h
DERL-7 (IL-2 2.5 ng/mL) [20] = experiment: as above; conditions: 72 h
[21] = test system: normal primary NK cells, pool 2 (3 donors) (IL-2 2.5 ng/mL); experiment: as above; conditions: 72 h
[22] = test system: normal primary NK cells, pool 1 (3 donors), resting (IL-2 0 ng/mL); experiment: as above; conditions: 72 h
YT (IL-2 2.5 ng/mL) [23] = experiment: as above; conditions: 72 h
IMC-1 (IL-2 20 ng/mL) [24] = experiment: as above; conditions: 72 h
NK-92 (IL-2 2.5 ng/mL) [25] = experiment: as above; conditions: 72 h
SNK-6 (IL-2 2.5 ng/mL) [26] = experiment: as above; conditions: 72 h
[27] = test system: normal primary NK cells, pool 3 (3 donors) (IL-2 2.5 ng/mL); experiment: as above; conditions: 72 h
[28] = test system: normal NK cells expanded with K562-aAPC; experiment: as above; conditions: 72 h, IL-2 2.5 ng/mL
Description: as §1

CN(C)Cc1ccc(S(=O)(=O)n2ccc(/C=C/C(=O)NO)c2)cc1 [Resminostat] (max concentration tested 10000 nM)
Conditions	drug sensitivity score
DERL-7 (IL-2 2.5 ng/mL) [7]	11.5
IMC-1 (IL-2 20 ng/mL) [11]	5.11
KAI3 (IL-2 2.5 ng/mL) [4]	17.1
KHYG-1 (IL-2 2.5 ng/mL) [2]	13.4
NK-92 (IL-2 2.5 ng/mL) [12]	14.1
NK-YS (IL-2 2.5 ng/mL) [6]	10.3
NKL (IL-2 2.5 ng/mL) [3]	18.2
SNK-6 (IL-2 2.5 ng/mL) [13]	12.3
YT (IL-2 2.5 ng/mL) [10]	9.67
[1]	10.6
[5]	13
[8]	10.2
[9]	16.1
[14]	8.68

percent inhibition of viability [%]
Conditions	1 nM	10 nM	100 nM	1000 nM	10000 nM
DERL-7 (IL-2 2.5 ng/mL) [20]	2.49	1.77	-10	47.9	101
IMC-1 (IL-2 20 ng/mL) [24]	-6.01	-4.89	-2.77	-7.01	101
KAI3 (IL-2 2.5 ng/mL) [17]	1.92	3.59	28.4	71.5	104
KHYG-1 (IL-2 2.5 ng/mL) [15]	-5.72	-0.43	1.19	68.5	106
NK-92 (IL-2 2.5 ng/mL) [25]	-4.22	-5.89	2.76	72.4	104
NK-YS (IL-2 2.5 ng/mL) [19]	-6.67	-3.77	2.32	34.2	103
NKL (IL-2 2.5 ng/mL) [16]	10.2	0.52	26.1	80.8	106
SNK-6 (IL-2 2.5 ng/mL) [26]	11.1	1.11	5.35	56.6	101
YT (IL-2 2.5 ng/mL) [23]	-1.93	-2.18	2.96	27.7	105
[18]	2.24	11.9	12.7	57.5	98.9
[21]	-6.44	4.91	8.82	42	97.4
[22]	-6.63	11.2	20.3	73.7	89.4
[27]	-1.68	4.21	3.8	20.1	98.5
[28]	-4.58	-2.4	-0.88	36.9	101

CS(=O)(=O)c1ccc(C2=C(c3ccccc3)C(=O)OC2)cc1 [Rofecoxib] (max concentration tested 10000 nM)
Conditions	drug sensitivity score
DERL-7 (IL-2 2.5 ng/mL) [7]	0
IMC-1 (IL-2 20 ng/mL) [11]	0
KAI3 (IL-2 2.5 ng/mL) [4]	0
KHYG-1 (IL-2 2.5 ng/mL) [2]	0
NK-92 (IL-2 2.5 ng/mL) [12]	0
NK-YS (IL-2 2.5 ng/mL) [6]	0
NKL (IL-2 2.5 ng/mL) [3]	0
SNK-6 (IL-2 2.5 ng/mL) [13]	0
YT (IL-2 2.5 ng/mL) [10]	0
[1]	0
[5]	0
[8]	0
[9]	0
[14]	0

percent inhibition of viability [%]
Conditions	1 nM	10 nM	100 nM	1000 nM	10000 nM
DERL-7 (IL-2 2.5 ng/mL) [20]	6.85	-1.97	-3.99	2.79	0.07
IMC-1 (IL-2 20 ng/mL) [24]	2.54	0.06	3	-1.23	3.31
KAI3 (IL-2 2.5 ng/mL) [17]	8.75	4.53	5.34	3.57	-3.77
KHYG-1 (IL-2 2.5 ng/mL) [15]	0.01	1.72	2.69	2.11	2.37
NK-92 (IL-2 2.5 ng/mL) [25]	11.4	-0.5	-4.39	-1.55	-5.21
NK-YS (IL-2 2.5 ng/mL) [19]	3.55	-3.6	-2.98	3.34	-0.78
NKL (IL-2 2.5 ng/mL) [16]	11.4	9.36	8.93	4.19	9.11
SNK-6 (IL-2 2.5 ng/mL) [26]	8.2	18.3	4.94	9.79	3.14
YT (IL-2 2.5 ng/mL) [23]	5.17	5.42	4.83	4.08	6.74
[18]	-5.06	-9.08	-8.33	2.49	0.6
[21]	-7.81	1.86	-6.15	-8.51	-5.43
[22]	-13.7	-25.3	-34.2	-6.69	-25.9
[27]	-7.45	-5.99	-3.42	-7.23	-12.4
[28]	10.3	5.54	3.01	2.73	3.42
